Molecular target: T1, human LXRβ (Homo sapiens, UniProt P55055)
T1 construct: expressed in transfected cells; host or cells: HEK293 cells (ATCC CRL-1573), transient transfection with pFA-hLXRβ/GAL4 and pUAS
T1 sequence (P55055 222-460 limits assumed): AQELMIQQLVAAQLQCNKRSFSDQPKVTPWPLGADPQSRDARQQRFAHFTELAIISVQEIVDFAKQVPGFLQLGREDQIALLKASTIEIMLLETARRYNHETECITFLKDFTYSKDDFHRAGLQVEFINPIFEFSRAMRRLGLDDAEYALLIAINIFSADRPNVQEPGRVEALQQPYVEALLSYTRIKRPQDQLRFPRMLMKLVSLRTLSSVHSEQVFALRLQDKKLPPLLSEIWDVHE
Test: Assay for Transcriptional Activity of LXRβ (GAL4-hLXRβ LBD luciferase reporter, transient transfection)
Assay type: cell-based
Details: HEK293 cells transfected with pFA-hLXRβ/GAL4 and pUAS, 24 hours; for Emax: fold value in comparison with the control (DMSO-treated group); for EC50: increase of transcriptional activity of LXRβ, average of three independent tests
In short: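 EC50 values, averaged over three independent runs, come from a four-parameter fit of 9-point half-log curves spanning 0.01–50 μM. Luciferase output was read in lysed HEK293 cells 24 h after dosing at 37 °C, following transient transfection with a GAL4-human LXRβ LBD fusion plus GAL4-responsive reporter.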

Emax [fold]	EC50 [nM]	SMILES
85	1160	CS(=O)(=O)c1ccc(-c2cccc(C3CC(C(F)(F)C(F)(F)F)=NN3c3ccccc3Cl)c2)cc1 (centres unmarked) [Example 106, 1-(2-chloro-phenyl)-5-(4′-methylsulfonyl-biphenyl-3-yl)-3-pentafluoroethyl-4,5-dihydro-1H-pyrazole]
73	181	CS(=O)(=O)c1ccc(-c2ccc(F)c(C3CC(C(F)(F)C(F)(F)F)=NN3c3ccc(F)cc3F)c2)cn1 (centres unmarked) [Example 142, 1-(2,4-difluoro-phenyl)-5-[6-fluoro-3-(6-methanesulfonyl-pyridin-3-yl)-phenyl]-3-pentafluoroethyl-4,5-dihydro-1H-pyrazole]
57	8520	COc1ccc(-c2cccc(C3CC(C(F)(F)C(F)(F)F)=NN3c3ccccc3Cl)c2)cc1OC (centres unmarked) [Example 112, 1-(2-chloro-phenyl)-5-(3′,4′-dimethoxy-biphenyl-3-yl)-3-pentafluoroethyl-4,5-dihydro-1H-pyrazole]
30	6120	O=S(=O)(C1CC1)N1CC=C(c2cncc(C3CC(C(F)(F)C(F)(F)F)=NN3c3ccc(F)cc3F)c2)CC1 (centres unmarked) [Example 168, 1-(2,4-difluoro-phenyl)-5-[3-(1-cyclopropanesulfonyl-1,2,3,6-tetrahydropyridin-4-yl)-pyridin-5-yl]-3-pentafluoroethyl-4,5-dihydro-1H-pyrazole]
52	5470	O=S(=O)(C1CCCCC1)N1CC=C(c2ccc(C3CC(C(O)(C(F)(F)F)C(F)(F)F)=NN3c3ccccc3Cl)cc2)CC1 (centres unmarked) [Example 307, 1-(2-chloro-phenyl)-5-[4-(1-cyclohexanesulfonyl-1,2,3,6-tetrahydropyridin-4-yl)-phenyl]-3-[di-(trifluoromethyl)-hydroxy-methyl]-4,5-dihydro-1H-pyrazole]
126	76	CC(C)(C)OC(=O)N1CC=C(c2cccc(C3CC(C(O)(C(F)(F)F)C(F)(F)F)=NN3c3ccccc3Cl)c2)CC1 (centres unmarked) [Example 229, 1-(2-chloro-phenyl)-5-[3-(1-BOC-1,2,3,6-tetrahydropyridin-4-yl)-phenyl]-3-[di-(trifluoromethyl)-hydroxy-methyl]-4,5-dihydro-1H-pyrazole]
45	785	CN(C)S(=O)(=O)N1CC=C(c2ccc(C3CC(C(O)(C(F)(F)F)C(F)(F)F)=NN3c3ccc(F)cc3F)cc2)CC1 (centres unmarked) [Example 401, 1-(2,4-difluoro-phenyl)-5-[4-(1-dimethylsulfamoyl-1,2,3,6-tetrahydropyridin-4-yl)-phenyl]-3-[di-(trifluoromethyl)-hydroxy-methyl]-4,5-dihydro-1H-pyrazole]
83	316	CCS(=O)(=O)N1CC=C(c2ccc(C3CC(C(O)(C(F)(F)F)C(F)(F)F)=NN3c3ccccc3Cl)cc2)CC1 (centres unmarked) [Example 299, 1-(2-chloro-phenyl)-5-[4-(1-ethanesulfonyl-1,2,3,6-tetrahydropyridin-4-yl)-phenyl]-3-[di-(trifluoromethyl)-hydroxy-methyl]-4,5-dihydro-1H-pyrazole]
94	473	OC(C1=NN(c2ccccc2Cl)C(c2ccc(-c3ccc(F)cc3)nc2)C1)(C(F)(F)F)C(F)(F)F (centres unmarked) [Example 353, 1-(2-chloro-phenyl)-5-[6-(4-fluoro-phenyl)-pyridin-3-yl]-3-[di-(trifluoromethyl)-hydroxy-methyl]-4,5-dihydro-1H-pyrazole]
125	193	CSc1cccc(-c2ccc(C3CC(C(O)(C(F)(F)F)C(F)(F)F)=NN3c3ccccc3Cl)s2)c1 (centres unmarked) [Example 414, 1-(2-chloro-phenyl)-5-{5-[3-(methylsulfanyl)-phenyl]-thiophen-2-yl}-3-[di-(trifluoromethyl)-hydroxy-methyl]-4,5-dihydro-1H-pyrazole]
79	3280	CS(=O)(=O)N1CCN(c2ccnc(C3CC(C(F)(F)C(F)(F)F)=NN3c3ccc(F)cc3F)c2)CC1 (centres unmarked) [Example 183, 1-(2,4-difluoro-phenyl)-5-[4-(4-methanesulfonyl-piperazin-1-yl)-pyridin-2-yl]-3-pentafluoroethyl-4,5-dihydro-1H-pyrazole]
56	2720	CS(=O)(=O)c1ccc(-c2cc(C3CC(C(F)(F)C(F)(F)F)=NN3c3ccc(F)cc3F)ccn2)cn1 (centres unmarked) [Example 189, 1-(2,4-difluoro-phenyl)-5-[2-(6-methanesulfonyl-pyridin-3-yl)-pyridin-4-yl]-3-pentafluoroethyl-4,5-dihydro-1H-pyrazole]
49	156	CS(=O)(=O)c1cccc(-c2ccc(C3CC(C(O)(C(F)(F)F)C(F)(F)F)=NN3c3ccc(F)cc3F)cc2)c1 (centres unmarked) [Example 413, 1-(2,4-difluoro-phenyl)-5-[3′-methanesulfonyl-biphenyl-4-yl]-3-[di-(trifluoromethyl)-hydroxy-methyl]-4,5-dihydro-1H-pyrazole]
45	958	CN(CCCS(=O)(=O)c1ccc(-c2cccc(C3CC(C(F)(F)C(F)(F)F)=NN3c3ccc(F)cc3F)c2)cc1)C(=O)OC(C)(C)C (centres unmarked) [Example 86, 5-{4′-[3-(N-BOC-N-methyl-amino)-propane-1-sulfonyl]-biphenyl-3-yl}-1-(2,4-difluoro-phenyl)-3-pentafluoroethyl-4,5-dihydro-1H-pyrazole]
34	10300	Fc1ccc(N2N=C(C(F)(F)C(F)(F)F)CC2c2ccc(F)c(-c3ccc(Cl)nc3)c2)c(F)c1 (centres unmarked) [Example 130, 1-(2,4-difluoro-phenyl)-5-[4-fluoro-3-(6-chloro-pyridin-3-yl)-phenyl]-3-pentafluoroethyl-4,5-dihydro-1H-pyrazole]
46	2540	CS(=O)(=O)N1CCN(c2ccc(C3CC(C(O)(C(F)(F)F)C(F)(F)F)=NN3c3ccccc3Cl)cc2)CC1 (centres unmarked) [Example 312, 1-(2-chloro-phenyl)-5-[4-(4-methanesulfonyl-piperazin-1-yl)-phenyl]-3-[di-(trifluoromethyl)-hydroxy-methyl]-4,5-dihydro-1H-pyrazole]
45	991	CC(=O)c1ccccc1-c1ccc(C2CC(C(O)(C(F)(F)F)C(F)(F)F)=NN2c2ccccc2Cl)cn1 (centres unmarked) [Example 348, 5-[6-(2-acetyl-phenyl)-pyridin-3-yl]-1-(2-chloro-phenyl)-3-[di-(trifluoromethyl)-hydroxy-methyl]-4,5-dihydro-1H-pyrazole]
51	550	CN(C)S(=O)(=O)N1CCCN(c2ccc(C3CC(C(O)(C(F)(F)F)C(F)(F)F)=NN3c3ccccc3Cl)cc2)CC1 (centres unmarked) [Example 326, 1-(2-chloro-phenyl)-5-[4-(4-dimethylsulfamoyl-homopiperazin-1-yl)-phenyl]-3-[di-(trifluoromethyl)-hydroxy-methyl]-4,5-dihydro-1H-pyrazole]
61	2480	CS(=O)(=O)c1ccc(-c2cccc(C3CC(C(F)(F)C(F)(F)F)=NN3c3ccc(F)cc3F)c2)cc1 (centres unmarked) [Example 51, 1-(2,4-difluoro-phenyl)-5-(4′-methanesulfonyl-biphenyl-3-yl)-3-pentafluoroethyl-4,5-dihydro-1H-pyrazole]
83	145	CN(C)S(=O)(=O)c1ccc(-c2ccc(C3CC(C(O)(C(F)(F)F)C(F)(F)F)=NN3c3ccc(F)cc3F)cc2)cc1 (centres unmarked) [Example 396, 1-(2,4-difluoro-phenyl)-5-(4′-dimethylsulfamoyl-biphenyl-4-yl)-3-(di-(trifluoromethyl)-hydroxy-methyl)-4,5-dihydro-1H-pyrazole]
59	442	N#Cc1ccc(-c2ccc(C3CC(C(O)(C(F)(F)F)C(F)(F)F)=NN3c3ccccc3Cl)cc2)cn1 (centres unmarked) [Example 267, 1-(2-chloro-phenyl)-5-[4-(6-cyano-pyridin-3-yl)-phenyl]-3-[di-(trifluoromethyl)-hydroxy-methyl]-4,5-dihydro-1H-pyrazole]
112	617	CSc1ccc(-c2ccc(C3CC(C(O)(C(F)(F)F)C(F)(F)F)=NN3c3ccccc3Cl)cc2)cc1 (centres unmarked) [Example 243, 1-(2-chloro-phenyl)-5-[4′-(methylsulfanyl)-biphenyl-4-yl]-3-[di-(trifluoromethyl)-hydroxy-methyl]-4,5-dihydro-1H-pyrazole]
66	1790	OC(C1=NN(c2ccccc2Cl)C(c2ccc(-c3cnc(Cl)nc3)cc2)C1)(C(F)(F)F)C(F)(F)F (centres unmarked) [Example 281, 1-(2-chloro-phenyl)-5-[4-(2-chloro-pyrimidin-5-yl)-phenyl]-3-[di-(trifluoromethyl)-hydroxy-methyl]-4,5-dihydro-1H-pyrazole]
107	8	CC(=O)N1CC=C(c2cccc(C3CC(C(O)(C(F)(F)F)C(F)(F)F)=NN3c3ccccc3Cl)c2)CC1 (centres unmarked) [Example 231, 5-[3-(1-acetyl-1,2,3,6-tetrahydropyridin-4-yl)-phenyl]-1-(2-chloro-phenyl)-3-[di-(trifluoromethyl)-hydroxy-methyl]-4,5-dihydro-1H-pyrazole]
61	746	CS(=O)(=O)c1ccc(-c2cccc(C3CC(C(F)(F)C(F)(F)F)=NN3c3ccc(Cl)cc3F)c2)cc1 (centres unmarked) [Example 53, 1-(4-chloro-2-fluoro-phenyl)-5-(4′-methanesulfonyl-biphenyl-3-yl)-3-pentafluoroethyl-4,5-dihydro-1H-pyrazole]
